Data set [1] has as its system Schizosaccharomyces pombe. Description: Genotoxicity in Schizosaccharomyces pombe Var. Paul Linder 3360 assessed as DNA damage at 2 to 10 ug/ml after 17 to 18 hrs by agarose gel electrophoresis analysis.
A further data set concerns Aspergillus clavatus. Description: Antifungal activity against Aspergillus clavatus MTCC 1323 incubated for overnight by broth micro dilution method. The data set is classed as functional.
A further data set has as its system Staphylococcus aureus. Description: Antimicrobial activity against Staphylococcus aureus MTCC 96 incubated for overnight by broth micro dilution method. In kind it is functional.
Data set [2] can be described thus: Cytotoxicity against Schizosaccharomyces pombe Var. Paul Linder 3360 assessed as cell viability at 6 ug/ml after 16 to 18 hrs by trypan blue staining-based compound microscopic analysis (reference value: 93.67 +/- 1.53%). As to conditions: Schizosaccharomyces pombe Var. Paul Linder 3360 cells, read-out: Activity.
Data set [3] can be described thus: Cytotoxicity against Schizosaccharomyces pombe Var. Paul Linder 3360 assessed as cell viability at 10 ug/ml after 16 to 18 hrs by trypan blue staining-based compound microscopic analysis (reference value: 93.67 +/- 1.53%). As to conditions: Schizosaccharomyces pombe Var. Paul Linder 3360 cells, read-out: Activity.
Another data set deals with Pseudomonas aeruginosa. Description: Antimicrobial activity against Pseudomonas aeruginosa MTCC 1688 incubated for overnight by broth micro dilution method. In kind it is functional.
A further data set has as its system Candida albicans. Description: Antifungal activity against Candida albicans MTCC 227 incubated for overnight by broth micro dilution method. The data set is classed as functional.
A short description of data set [4]: Cytotoxicity against Schizosaccharomyces pombe Var. Paul Linder 3360 assessed as cell viability at 4 ug/ml after 16 to 18 hrs by trypan blue staining-based compound microscopic analysis (reference value: 93.67 +/- 1.53%). As to conditions: Schizosaccharomyces pombe Var. Paul Linder 3360 cells, read-out: Activity.
Another data set relates to Streptococcus pyogenes. The data set is described as follows: Antimicrobial activity against Streptococcus pyogenes MTCC 442 incubated for overnight by broth micro dilution method. The data set is classed as functional.
Data set [5] can be described thus: Cytotoxicity against Schizosaccharomyces pombe Var. Paul Linder 3360 assessed as cell viability at 8 ug/ml after 16 to 18 hrs by trypan blue staining-based compound microscopic analysis (reference value: 93.67 +/- 1.53%). As to conditions: Schizosaccharomyces pombe Var. Paul Linder 3360 cells, read-out: Activity.
Another data set has as its system Plasmodium falciparum. Description: Antimalarial activity against Plasmodium falciparum ring stage forms after 48 hrs. In kind it is functional.
The target of another data set is T1, Dihydrofolate reductase (Bos taurus, UniProt P00376).
T1 sequence (P00376 whole entry): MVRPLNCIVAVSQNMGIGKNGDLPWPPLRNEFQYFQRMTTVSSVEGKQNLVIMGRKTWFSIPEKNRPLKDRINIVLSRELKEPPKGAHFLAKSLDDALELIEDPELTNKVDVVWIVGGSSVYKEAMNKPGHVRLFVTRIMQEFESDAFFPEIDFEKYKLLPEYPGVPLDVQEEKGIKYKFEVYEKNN
Description: Inhibition of bovine liver DHFR pre-incubated 2 mins before dihydrofolic acid substrate addition and measured over 10 mins in presence of NADPH.

Data set [6] in a line: Cytotoxicity against Schizosaccharomyces pombe Var. Paul Linder 3360 assessed as cell viability at 2 ug/ml after 16 to 18 hrs by trypan blue staining-based compound microscopic analysis (reference value: 93.67 +/- 1.53%). As to conditions: Schizosaccharomyces pombe Var. Paul Linder 3360 cells, read-out: Activity.
Another data set relates to Escherichia coli. Description: Antimicrobial activity against Escherichia coli MTCC 443 incubated for overnight by broth micro dilution method. The data set is classed as functional.

≈ marks a conversion by molar mass, not a printed value.

As to `O=[N+]([O-])c1cccc(/C=N/c2ccc(-c3nnc(S)n3/N=C/c3cccc([N+](=O)[O-])c3)cc2)c1`, in [1], the Activity result is reported as “Toxic”. The MIC99 came to 2110 µM (≈ 1000 µg/mL) against Aspergillus clavatus; 264 µM (≈ 125 µg/mL) in the data set with Staphylococcus aureus; 528 µM (≈ 250 µg/mL) with Pseudomonas aeruginosa; 1060 µM (≈ 500 µg/mL) in the data set on Candida albicans; 132 µM (≈ 62.5 µg/mL) with Streptococcus pyogenes; 423 µM (≈ 200 µg/mL) in the data set with Escherichia coli. Also, the viability at 6 ug/ml in data set [2] is 73.7%. Besides, the viability at 10 ug/ml in data set [3] worked out at 59.7%. Moreover, the viability at 4 ug/ml in data set [4] was 80%. Besides, the viability at 8 ug/ml in [5] was determined as 65.3%. Further, the IC50 in the data set with Plasmodium falciparum was 245 nM; on Dihydrofolate reductase, 25.9 nM. In addition, the viability at 2 ug/ml in data set [6] amounted to 87%.

What is called MIC99 is an inhibitory concentration at the 99% level, which refers to growth in some studies and to a panel of isolates in others. Usually IC50 stands for the point on the concentration scale where inhibition reaches its midpoint.
